# According to ChEMBL document CHEMBL2074075, “Functional assay of multidrug resistant cells using JC-1, a carbocyanine fluorescent probe” (Leukemia, 1997):
# Columns and labels:
# [1] = biological target: T1, ATP-dependent translocase ABCB1 (Homo sapiens, UniProt P08183); assay: TP_TRANSPORTER: spectrofluorimetric analysis (intracellular accumulation) in K562 and K562/ADR cells; assay type: functional, cell-based
# [2] = biological target: T1, ATP-dependent translocase ABCB1; assay: TP_TRANSPORTER: inhibition of JC-1 uptake (JC-1: ca 0.1 uM, S9788: 5 uM) in K562 and K562/ADR cells, flow cytometry; assay type: functional, cell-based
# T1 sequence (P08183 whole entry): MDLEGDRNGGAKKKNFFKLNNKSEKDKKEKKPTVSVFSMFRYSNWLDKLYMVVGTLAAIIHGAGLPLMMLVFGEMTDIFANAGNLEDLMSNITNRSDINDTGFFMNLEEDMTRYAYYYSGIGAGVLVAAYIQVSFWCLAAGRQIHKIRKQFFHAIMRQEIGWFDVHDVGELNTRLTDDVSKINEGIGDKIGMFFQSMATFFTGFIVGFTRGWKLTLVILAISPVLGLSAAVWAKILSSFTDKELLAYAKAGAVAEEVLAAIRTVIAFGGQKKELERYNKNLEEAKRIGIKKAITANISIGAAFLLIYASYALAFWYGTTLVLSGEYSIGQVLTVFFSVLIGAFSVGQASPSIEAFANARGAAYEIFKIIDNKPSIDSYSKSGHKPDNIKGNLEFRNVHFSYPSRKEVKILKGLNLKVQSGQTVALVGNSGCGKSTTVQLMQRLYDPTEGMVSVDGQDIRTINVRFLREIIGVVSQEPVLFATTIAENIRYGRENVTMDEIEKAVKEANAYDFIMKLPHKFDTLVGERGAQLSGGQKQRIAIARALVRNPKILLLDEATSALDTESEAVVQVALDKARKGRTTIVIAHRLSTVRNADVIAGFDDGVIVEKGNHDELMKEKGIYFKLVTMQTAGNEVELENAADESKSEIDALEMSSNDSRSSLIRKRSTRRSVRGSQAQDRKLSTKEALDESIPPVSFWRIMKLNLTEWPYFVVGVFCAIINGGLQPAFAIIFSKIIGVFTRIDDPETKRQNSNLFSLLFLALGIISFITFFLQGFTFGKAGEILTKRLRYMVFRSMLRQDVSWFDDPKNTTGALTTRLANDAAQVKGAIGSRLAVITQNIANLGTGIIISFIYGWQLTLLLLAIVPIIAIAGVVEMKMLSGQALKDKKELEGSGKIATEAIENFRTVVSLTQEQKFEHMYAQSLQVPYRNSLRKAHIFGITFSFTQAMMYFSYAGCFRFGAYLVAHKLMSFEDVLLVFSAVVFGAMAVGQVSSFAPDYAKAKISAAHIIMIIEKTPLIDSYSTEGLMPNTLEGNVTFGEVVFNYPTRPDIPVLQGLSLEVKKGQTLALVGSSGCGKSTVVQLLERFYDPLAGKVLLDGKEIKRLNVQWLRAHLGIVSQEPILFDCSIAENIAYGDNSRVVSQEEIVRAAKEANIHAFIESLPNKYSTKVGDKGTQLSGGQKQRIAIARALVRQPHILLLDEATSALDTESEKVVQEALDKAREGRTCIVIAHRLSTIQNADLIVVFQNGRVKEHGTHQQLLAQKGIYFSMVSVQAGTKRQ
SMILES,Activity [1],Activity [2]
CCN1C(=C/C=C/c2n(CC)c3cc(Cl)c(Cl)cc3[n+]2CC)N(CC)c2cc(Cl)c(Cl)cc21.[I-],substrate [+],
C=CCNc1nc(NCC=C)nc(N2CCC(NCC(c3ccc(F)cc3)c3ccc(F)cc3)CC2)n1,,inhibitor [+]
